Data as given in patent US20230021483A1, “[…] […] METHOD AND CLASSIFICATION OF PHARMACEUTICAL COMPONENTS BY USING TRANSCRIPTOMES” (National Institutes of Biomedical Innovation, Health and …, priority 2016, published 2023).

What was measured:
liver (LV) = assay: Whole organ transcriptome (GeneChip microarray) of liver 6 h after adjuvant administration: sDEGs, hierarchical clustering; type: in vivo, C57BL/6 mice; conditions: liver; for Number of gene probes with statistically significant changes (sDEGs), LV, Down: fold change <0.667, p<0.01, customized PA call=1; for Number of gene probes with statistically significant changes (sDEGs), LV, Down / Number of gene probes with statistically significant changes (sDEGs), LV, Up: 6 h after adjuvant; for Number of gene probes with statistically significant changes (sDEGs), LV, Up: fold change >1.5, p<0.01, customized PA call=1; as to adjuvant group (cluster) in LV: key: G1 (interferon signaling); G2 (metabolism of lipids and lipoproteins); G3 (response to stress); G4 (response to wounding); G5 (phosphate-containing compound metabolic process); G6 (phagosome)
[1] = system: adjuvant-associated biological themes in LV, SP, LN
Description: A defined sets of genes were selected according to specified criteria (e.g., FC, PA-call, threshold values). Their functional enrichment values were then obtained from TargetMine (Chen, Y. A., Tripathi, L. P. & Mizuguchi, K. PloS one 6, e17844 (2011)) (http://targetmine.mizuguchilab.org/) using the API interface. The following resources were used throughout the analysis via TargetMine Interface (GO, GOSlim, Integrated Pathway, KEGG, Reactome, and the NCI pathway). The Holm-Bonferroni method was used for multiple testing corrections.
Whole organ transcriptome data for each organ from each mouse were analyzed as follows to obtain biological themes for individual samples from each adjuvant-administered group of three mice. […] A set of Pj genes was first defined, where eij/ei(c)>2.0. Biological themes enriched within Pj were then identified using TargetMine (Chen, Y. A. et al., PloS one 6, e17844 (2011)) (http://targetmine.mizuguchilab.org/). Tj denote the resulting list of biological themes, with associated p-values from Fischer's exact test.
Next, the biological themes called by all the individual samples in the group were scored as follows. Having obtained three lists (T1, T2 and T3) for a given experimental condition, a consensus list T of themes was created as T={(t1, p1), (t2, p2), . . . }, where ti is a biological theme that appears in all of T1, T2 and T3, and pi is the smallest of the associated p-values. Only the themes with the p-value of <0.05 were included in T.
To summarize the biological themes in T further, a list of terms considered to be associated with adjuvant activity in general was separately prepared. AT={at1, at2, . . . }, where ati is a pre-selected adjuvant-associated term (e.g., “stress” or “cytokine”). Finally, an enrichment score S for an adjuvant-associated term ati was defined as: S(ati)=Σ−log(pj), where the name of tj in T includes a term ati as a substring and pj is the associated p-value.
This scoring scheme summarizes the relative enrichment of pre-selected adjuvant-associated terms in genes responding to each adjuvant in each organ.

## CC(O)COC[C@H]1O[C@@H]2O[C@H]3[C@H](O)[C@@H](O)[C@@H](O[C@H]4[C@H](O)[C@@H](O)[C@@H](O[C@H]5[C@H](O)[C@@H](O)[C@@H](O[C@H]6[C@H](O)[C@@H](O)[C@@H](O[C@H]7[C@H](O)[C@@H](O)[C@@H](O[C@H]8[C@H](O)[C@@H](O)[C@@H](O[C@H]1[C@H](O)[C@H]2O)O[C@@H]8COCC(C)O)O[C@@H]7COCC(C)O)O[C@@H]6COCC(C)O)O[C@@H]5COCC(C)O)O[C@@H]4COCC(C)O)O[C@@H]3COCC(C)O (stereo partly drawn) [bCD, Hydroxypropyl-beta-cyclodextrin]
Liver (LV); hierarchical clustering
  adjuvant group (cluster) in LV: G2
Liver (LV); i.d. administration
  Number of gene probes with statistically significant changes (sDEGs), LV, Down: 315
  Number of gene probes with statistically significant changes (sDEGs), LV, Up: 107
Liver (LV); i.p. administration
  Number of gene probes with statistically significant changes (sDEGs), LV, Down: 20
  Number of gene probes with statistically significant changes (sDEGs), LV, Up: 14
[1]; LV, ID
  GO annotation: Cytokine-cytokine receptor interaction (Term: cytokine): 4.24
  GO annotation: Cytokine-cytokine receptor interaction|Endocytosis (Term: cytokine): 7.76
  GO annotation: I-kappaB kinase/NF-kappaB signaling (Term: NF-kappa B signaling pathway): 4.21
  GO annotation: NF-kappa B signaling pathway (Term: NF-kappa B signaling pathway): 6.86
  GO annotation: TNF signaling pathway (Term: TNF signaling pathway): 10.6
  GO annotation: activation of immune response (Term: immune response): 0
  GO annotation: activation of innate immune response (Term: innate immune response): 0
  GO annotation: acute inflammatory response (Term: inflammatory response): 0
  GO annotation: adaptive immune response (Term: adaptive immune response): 0
  GO annotation: apoptotic process (Term: apoptosis): 0
  GO annotation: apoptotic signaling pathway (Term: apoptosis): 0
  GO annotation: cell chemotaxis (Term: chemotaxis): 5.73
  GO annotation: cell death (Term: cell death): 5.8
  GO annotation: cell migration (Term: migration): 0
  GO annotation: cellular response to cytokine stimulus (Term: cytokine): 0
  GO annotation: cellular response to interferon-alpha (Term: IFN alpha): 0
  GO annotation: cellular response to stress (Term: stress): 0
  GO annotation: chemokine production (Term: chemokine): 0
  GO annotation: chemokine-mediated signaling pathway (Term: chemokine): 0
  GO annotation: chemotaxis (Term: chemotaxis): 0
  GO annotation: cytokine biosynthetic process (Term: cytokine): 0
  GO annotation: cytokine metabolic process (Term: cytokine): 0
  GO annotation: cytokine production (Term: cytokine): 3.82
  GO annotation: cytokine secretion (Term: cytokine): 0
  GO annotation: cytokine-mediated signaling pathway (Term: cytokine): 0
  GO annotation: death (Term: cell death): 0
  GO annotation: defense response (Term: defense response): 8.51
  GO annotation: defense response to Gram-positive bacterium (Term: defense response): 0
  GO annotation: defense response to bacterium (Term: defense response): 0
  GO annotation: defense response to other organism (Term: defense response): 0
  GO annotation: defense response to protozoan (Term: defense response): 0
  GO annotation: defense response to virus (Term: defense response): 0
  GO annotation: granulocyte chemotaxis (Term: chemotaxis): 0
  GO annotation: granulocyte migration (Term: migration): 0
  GO annotation: immune response (Term: immune response): 0
  GO annotation: immune response-activating signal transduction (Term: immune response): 0
  GO annotation: immune response-regulating signaling pathway (Term: immune response): 0
  GO annotation: inflammatory response (Term: inflammatory response): 10.9
  GO annotation: innate immune response (Term: innate immune response): 0
  GO annotation: innate immune response-activating signal transduction (Term: innate immune response): 0
  GO annotation: interferon-alpha production (Term: IFN alpha): 0
  GO annotation: intrinsic apoptotic signaling pathway (Term: apoptosis): 0
  GO annotation: leukocyte chemotaxis (Term: chemotaxis): 0
  GO annotation: leukocyte migration (Term: migration): 0
  GO annotation: leukocyte migration involved in inflammatory response (Term: inflammatory response): 0
  GO annotation: lymphocyte chemotaxis (Term: chemotaxis): 0
  GO annotation: lymphocyte migration (Term: migration): 0
  GO annotation: myeloid leukocyte migration (Term: migration): 0
  GO annotation: negative regulation of apoptotic process (Term: apoptosis): 0
  GO annotation: negative regulation of cell death (Term: cell death): 0
  GO annotation: negative regulation of cytokine production (Term: cytokine): 0
  GO annotation: negative regulation of defense response (Term: defense response): 0
  GO annotation: negative regulation of immune response (Term: immune response): 0
  GO annotation: negative regulation of innate immune response (Term: innate immune response): 0
  GO annotation: negative regulation of programmed cell death (Term: cell death): 0
  GO annotation: neutrophil chemotaxis (Term: chemotaxis): 0
  GO annotation: neutrophil migration (Term: migration): 0
  GO annotation: positive regulation of I-kappaB kinase/NF-kappaB signaling (Term: NF-kappa B signaling pathway): 0
  GO annotation: positive regulation of adaptive immune response (Term: adaptive immune response): 0
  GO annotation: positive regulation of apoptotic process (Term: apoptosis): 0
  GO annotation: positive regulation of cell death (Term: cell death): 0
  GO annotation: positive regulation of cell migration (Term: migration): 0
  GO annotation: positive regulation of chemokine production (Term: chemokine): 0
  GO annotation: positive regulation of chemotaxis (Term: chemotaxis): 0
  GO annotation: positive regulation of cytokine biosynthetic process (Term: cytokine): 0
  GO annotation: positive regulation of cytokine production (Term: cytokine): 0
  GO annotation: positive regulation of defense response (Term: defense response): 0
  GO annotation: positive regulation of immune response (Term: immune response): 0
  GO annotation: positive regulation of inflammatory response (Term: inflammatory response): 0
  GO annotation: positive regulation of innate immune response (Term: innate immune response): 0
  GO annotation: positive regulation of interferon-alpha production (Term: IFN alpha): 0
  GO annotation: positive regulation of leukocyte chemotaxis (Term: chemotaxis): 0
  GO annotation: positive regulation of leukocyte migration (Term: migration): 0
  GO annotation: positive regulation of programmed cell death (Term: cell death): 0
  GO annotation: positive regulation of response to wounding (Term: wounding): 0
  GO annotation: positive regulation of tumor necrosis factor superfamily cytokine (Term: cytokine): 0
  GO annotation: production of molecular mediator of immune response (Term: immune response): 0
  GO annotation: programmed cell death (Term: cell death): 0
  GO annotation: regulation of I-kappaB kinase/NF-kappaB signaling (Term: NF-kappa B signaling pathway): 0
  GO annotation: regulation of adaptive immune response (Term: adaptive immune response): 0
  GO annotation: regulation of apoptotic process (Term: apoptosis): 0
  GO annotation: regulation of apoptotic signaling pathway (Term: apoptosis): 0
  GO annotation: regulation of cell death (Term: cell death): 0
  GO annotation: regulation of cell migration (Term: migration): 0
  GO annotation: regulation of chemokine production (Term: chemokine): 0
  GO annotation: regulation of chemotaxis (Term: chemotaxis): 0
  GO annotation: regulation of cytokine biosynthetic process (Term: cytokine): 0
  GO annotation: regulation of cytokine production (Term: cytokine): 4.06
  GO annotation: regulation of defense response (Term: defense response): 6.85
  GO annotation: regulation of defense response to virus (Term: defense response): 0
  GO annotation: regulation of defense response to virus by host (Term: defense response): 0
  GO annotation: regulation of immune response (Term: immune response): 0
  GO annotation: regulation of inflammatory response (Term: inflammatory response): 7.33
  GO annotation: regulation of innate immune response (Term: innate immune response): 0
  GO annotation: regulation of interferon-alpha production (Term: IFN alpha): 0
  GO annotation: regulation of intrinsic apoptotic signaling pathway (Term: apoptosis): 0
  GO annotation: regulation of leukocyte chemotaxis (Term: chemotaxis): 0
  GO annotation: regulation of leukocyte migration (Term: migration): 0
  GO annotation: regulation of programmed cell death (Term: cell death): 0
  GO annotation: regulation of response to stress (Term: stress): 0
  GO annotation: regulation of response to wounding (Term: wounding): 6.31
  GO annotation: regulation of tumor necrosis factor superfamily cytokine production (Term: cytokine): 0
  GO annotation: response to cytokine (Term: cytokine): 7.77
  GO annotation: response to interferon-alpha (Term: IFN alpha): 0
  GO annotation: response to stress (Term: stress): 10.4
  GO annotation: response to wounding (Term: wounding): 5.85
  GO annotation: taxis (Term: chemotaxis): 0
  GO annotation: tumor necrosis factor superfamily cytokine production (Term: cytokine): 0
  IFN beta: cellular response to interferon-beta: 0
  IFN beta: interferon-beta production: 0
  IFN beta: positive regulation of interferon-beta production: 0
  IFN beta: regulation of interferon-beta production: 0
  IFN beta: response to interferon-beta: 0
  IFN gamma: cellular response to interferon-gamma: 0
  IFN gamma: interferon-gamma production: 0
  IFN gamma: regulation of interferon-gamma production: 0
  IFN gamma: response to interferon-gamma: 0
  interleukin-6: interleukin-6 production: 0
  interleukin-6: positive regulation of interleukin-6 production: 0
  interleukin-6: regulation of interleukin-6 production: 0
  interleukin-12: interleukin-12 production: 0
  interleukin-12: positive regulation of interleukin-12 production: 0
  interleukin-12: regulation of interleukin-12 production: 0
[1]; mouse, in vivo
  GO annotation: adaptive immune response based on somatic recombination of immune receptors built from immunoglobulin superfamily domains (Term: adaptive immune response): 0
  GO annotation: regulation of adaptive immune response based on somatic recombination of immune receptors built from immunoglobulin superfamily domains (Term: adaptive immune response): 0
